Assay results as given in patent publication EP0488079A1, “Oxadiazolylmethylpurines, their preparation, and their pharmaceutical use” (CHINOIN Gyògyszer és Vegyészeti Termékek Gyára RT., priority 1990, dated 1992).
Like-named read-outs stand apart in the source and are kept apart here.

What was measured:
Mäusen [1] = assay: Acute oral toxicity in mice; details: p.o.
[2] = tested on: durch elektrische Reizung des Nervus laryngeus Husten; assay: Antitussive effect, cough induced in cats by electrical stimulation of the Nervus laryngeus; assay type: in vivo, Katzen; details: for ED50: Felis catus, po, cough by electrical stimulation, p.o., p <0,001, read-out: ED₅₀ (±S.D.)
From the text: Die hustenlindernde Wirkung der Verbindung Ia wurde an Katzen untersucht, an denen durch elektrische Reizung des Nervus laryngeus Husten ausgelöst worden war (R. Domenjoz, Arch. Exp. Path. 1952, 19). Die zu untersuchenden Verbindungen wurden i.v. beziehungsweise mit Schlundsonde p.o. verabreicht. […] Tabelle 1

[3] = tested on: durch einen 15 %-igen Citronensäurespray hervorgerufenem Husten; assay: Antitussive effect, cough induced in guinea pigs by 15 % citric acid spray; assay type: in vivo, Meerschweinchen; details: Cavia porcellus, po, 1 h, read-out: ED₅₀ (±S.D.)
From the text: Die hustenlindernde Wirkung wurde auch an Meerschweinchen untersucht, an denen die Dämpfung des durch einen 15 %-igen Citronensäurespray ausgelösten Hustens bestimmt wurde (I. Erdély, L. Tardos, Arzneim. Forsch. 1966, 617). Die hustenlindernden Mittel wurden eine Stunde vor der Messung oral verabreicht. Auch in diesem Test erwies sich die Verbindung Ia als starkes Hustenlinderungsmittel; ihre Wirkung übertraf die der Referenzsubstanzen (Tabelle 2). Tabelle 2

[4] = tested on: isolierten glatten Luftröhrenmuskel des Meerschweinchens; assay: Inhibition of the constrictor effect of histamine on isolated tracheal smooth muscle; assay type: cell-based, Meerschweinchen; details: against histamine, isolated guinea pig tracheal smooth muscle; for EC50: cumulative dose series, read-out: p d 2 (converted)
From the text: Am glatten Luftröhrenmuskel des Meerschweinchens ist die Wirkung der Verbindung Ia der des Theophyllins ähnlich, wenn die Wirkung gegen Histamin in einer kumulativen Dosisreihe untersucht wird (Tabelle 3). Tabelle 3

[5] = tested on: durch Histamin ausgelösten Anstiegs des Widerstands der Luftwege; assay: Inhibition of the histamine-induced rise in airway resistance in cats; assay type: in vivo, Katzen; details: for Wirkungsmaximum: 3 µg/kg histamine i.v., 4 mg/kg substance intraduodenal, measured minute 10 to 120; for rel.Wirkungsstärke: relative to Theophyllin = 1,00
From the text: Die Hemmung des durch Histamin ausgelösten Anstiegs des Widerstands der Luftwege wurde an Katzen untersucht (M.A. Wassermann, D.W. Du Charme, Prostaglandins, 1977, 255).
Minute gemessen. […] Tabelle 4

Mäusen [6] = details: in vivo
[7] = Absorption after oral administration; assay type: in vivo; details: without salt formation
[8] = tested on: sensibilisierten Meerschweinchen; assay: Experimental asthma (anaphylaxis): airway resistance in ovalbumin-sensitised guinea pigs after intratracheal ovalbumin; assay type: in vivo; details: for δ (Änderung des Beatmungswiderstands): deviation from own value after dosing
Experimental: Die Meerschweinchen wurden durch eine einmalige Gabe von 1 µg/kg Ovalbumin i.v. sensibilisiert (Andersson, Brattsand, Br. J. Pharmacol. 1982, 139) und bekamen nach 40 Tagen die zu untersuchenden Verbindungen in einer Dosis von 10 mg/kg i.v. Die narkotisierten, muskelrelaxierten und künstlich beatmeten Tiere erhielten 3 mg/kg Ovalbumin intratracheal, und zu unterschiedlichen Zeitpunkten wurde gemessen, wie stark die zu untersuchenden Verbindungen den Anstieg des Widerstandes der Luftwege zu kompensieren vermochten.
Nach Narkose Präparation und Verabreichung eines Muskelrelaxans Beatmung 1. Messung: 5 min nach Injizierung von 10 mg/kg Wirkstoff, dann intratracheale Provokation (Minute 0) 2. Messung: 3 min nach intratrachealer Provokation 3. Messung: 6 min nach intratrachealer Provokation 4. Messung: 12 min nach intratrachealer Provokation 5. Messung: 24 min nach intratrachealer Provokation.
Die Beatmung erfolgte mit positivem Druck bei einer Frequenz von 90/min und einem Volumen von 3 ml.
Die Kontrollgruppe erhielt physiologische Kochsalzlösung. Der Wert δ ist die Abweichung von dem eigenen, nach der Verabreichung der Dosis von 10 mg/kg Wirkstoff gemessenen Wert (Eigenkontrolle).

Water solubility = assay type: physicochemical
[9] = tested on: Zentralnervensystem und das Herz; assay: Respiratory depression and side effects on central nervous system and heart; assay type: in vivo
[10] = 10 mg/kg i.v., 3 min after intratracheal ovalbumin
[11] = 10 mg/kg i.v., 6 min after intratracheal ovalbumin
[12] = 10 mg/kg i.v., 12 min after intratracheal ovalbumin
[13] = 10 mg/kg i.v., 24 min after intratracheal ovalbumin

For `COc1ccc2c3c1O[C@H]1[C@@H](O)C=C[C@H]4[C@@H](C2)N(C)CC[C@@]341.Cl` [Codeïn HCl], the DL₅₀ (Mäusen [1]) was 359,2 mg/kg, the ED50 [2] was 4.33 mg/kg and the ED50 [3] was 12.8 mg/kg.

With `COc1ccc2c(c1)[C@]13CCCC[C@@H]1[C@H](C2)N(C)CC3` [Dextromethorphan HBr] the DL₅₀ (Mäusen [1]) was 165,9 mg/kg and the ED50 [3] was 5.26 mg/kg.

For `Cn1c(=O)c2[nH]cnc2n(C)c1=O` [Theophyllin, reference compound], the EC50 [4] was 4.17 µM, the Emax [4] was 44% and the Wirkungsmaximum [5] was 15,7. For the same molecule, the rel.Wirkungsstärke ([5]; 4 mg/kg intraduodenal) was 1,00.

In the case of `Cc1nc(Cn2cnc3[nH]c(=O)n(C)c(=O)c32)no1` [Verbindung Ia, 1-Methyl-7-(5-methyl-1,2,4-oxadiazol-3-yl)-methyl-3,7-dihydro-3H-purin-2,6-dion], the EC50 [4] was 3.31 µM, the Emax [4] was 36% and the “therapeutischer Index” value (Mäusen [6]) was “um mehr als eine Größenordnung besser als der der Referenzsubstanzen”. The DL₅₀ (Mäusen [6]; mouse, po) was > 2000 mg/kg, the ED50 [2] was 3.74 mg/kg and the “hustenlindernde Wirkung” value ([2]; i.v. and p.o.) was “bedeutende hustenlindernde Wirkung”. The “Zeitdauer der Wirkung” value ([2]; i.v. and p.o., compared with reference substances) was “länger als die der Referenzsubstanzen”, the Resorption [7] was “ausgezeichnet und schnell resorbiert” and the ED50 ([3]; guinea pigs, 15 % citric acid spray, one hour after p.o. administration, p <0,001) was 3.04 mg/kg. For the same molecule, the “Beatmungswiderstand R” value [8, 10] was 9,21±0,84 Pa/ml/s, the “δ (Änderung des Beatmungswiderstands)” value [8, 10] was 1,14±0,77 Pa/ml/s and the “Beatmungswiderstand R” value [8, 11] was 9,41±0,91 Pa/ml/s. The “δ (Änderung des Beatmungswiderstands)” value [8, 11] was 1,34±0,96 Pa/ml/s, the “Beatmungswiderstand R” value [8, 12] was 10,10±0,94 Pa/ml/s and the “δ (Änderung des Beatmungswiderstands)” value [8, 12] was 2,03±0,44 Pa/ml/s. For the same molecule, the “Beatmungswiderstand R” value [8, 13] was 9,92±1.11 Pa/ml/s, the “δ (Änderung des Beatmungswiderstands)” value [8, 13] was 1,85±0,64 Pa/ml/s and the “Beatmungswiderstand R” value ([8]; nach 10 mg i.v. (5 min after injection, before intratracheal ovalbumin provocation)) was 8,07±0,93 Pa/ml/s. For the same molecule, the Wasserlöslichkeit (Water solubility) was “mäßigen Wasserlöslichkeit”, the “atmungsdämpfende Wirkung” value ([9]; in contrast to the reference substances) was “keine atmungsdämpfende Wirkung” and the “unerwünschte Nebenwirkungen auf das Zentralnervensystem und das Herz” value ([9]; side effects characteristic of Theophyllin) was “nicht aufweist”. The Wirkungsmaximum [5] was 28,2, the “Dauer der Wirkung” value ([5]; 4 mg/kg intraduodenal, compared with Theophyllin) was “hielt längere Zeit an” and the rel.Wirkungsstärke ([5]; 4 mg/kg intraduodenal) was 1,79.
